We go through 1 compound from PMC7999182, “Interaction of Remdesivir with Clinically Relevant Hepatic Drug Uptake Transporters” (Pharmaceutics, 2021).

Substitutions are numbered along the chain they refer to.

The test system of data set [1] is vector-transfected control cells. As to the kind of experiment: Remdesivir accumulation into vector-transfected control HEK cells. It counts as in vitro ADME, human. The conditions noted are these: 5 µM remdesivir, 10 min. The source says: (§1) Generation, cultivation and characterization of human embryonic kidney (HEK) cells stably expressing OATP1B1 refseq (=OATP1B1*1a), OATP1B1*1b, OATP1B1*5 and OATP1B1*15 [18], OATP1B3 [19], OATP2B1 [13] and OCT1 [20] have been described previously. OATP1B1 cells were cultivated in minimal essential medium (Life Technologies, Paisley, UK) and OATP1B3, OATP2B1 and OCT1 cells were cultivated in Dulbecco’s modified Eagle medium (Sigma, Darmstadt, Germany). Cultivation media were supplemented with 10% fetal calf serum, 100 U/mL penicillin and 100 µg/mL streptomycin. Cells were grown at 37 °C and 5% CO2. Functionality of the cells was confirmed by measuring uptake of prototypic substrates (see Section 2.3 and supplementary material).
Uptake assays were conducted at 37 °C according to previously described methods. For this, cells were seeded in 24-well plates (320,000 cells/well) and cultured for 2 days. Cells were then incubated for a further 24 h in culture medium with 5 mM butyrate (OATP1B3, OATP2B1, OCT1) or 10 mM butyrate (OATP1B1) to increase protein levels of recombinant transporters. […]
(§2) Remdesivir was determined by UHPLC-MS-MS analysis on an Agilent 1290 infinity UHPLC system coupled to an Agilent 6495B triple quadrupole mass spectrometer (Agilent, Waldbronn, Germany) similar to a recently published method. […]

Data set [2] relates to OATP1B1. Details: method as in earlier work. The conditions noted are these: prototypic substrate not stated; cited from earlier work.
In a further data set the target is T1, OATP1B1*15 (Homo sapiens, UniProt Q9Y6L6, N130D/V174A).
T1 construct: expressed in transfected cells
T1 sequence (Q9Y6L6 1-691 N130D/V174A): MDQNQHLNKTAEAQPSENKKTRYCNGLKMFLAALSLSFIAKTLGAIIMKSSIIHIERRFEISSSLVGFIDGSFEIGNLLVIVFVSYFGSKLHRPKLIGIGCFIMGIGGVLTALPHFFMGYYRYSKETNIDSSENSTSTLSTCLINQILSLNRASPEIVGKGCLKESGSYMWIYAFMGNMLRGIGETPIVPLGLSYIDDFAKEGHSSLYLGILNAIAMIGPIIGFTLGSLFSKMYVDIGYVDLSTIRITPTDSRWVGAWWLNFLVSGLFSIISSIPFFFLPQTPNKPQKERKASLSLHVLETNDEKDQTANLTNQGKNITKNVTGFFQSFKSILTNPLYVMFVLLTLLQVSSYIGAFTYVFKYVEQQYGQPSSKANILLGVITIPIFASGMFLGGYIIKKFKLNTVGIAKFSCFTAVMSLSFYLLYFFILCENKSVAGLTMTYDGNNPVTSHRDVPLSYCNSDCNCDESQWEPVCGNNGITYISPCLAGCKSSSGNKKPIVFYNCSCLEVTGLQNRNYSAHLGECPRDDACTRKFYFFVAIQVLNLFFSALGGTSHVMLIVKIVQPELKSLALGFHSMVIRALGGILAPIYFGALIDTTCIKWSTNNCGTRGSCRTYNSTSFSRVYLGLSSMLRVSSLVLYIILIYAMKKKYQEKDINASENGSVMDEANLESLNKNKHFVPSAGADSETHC
Briefly: Remdesivir uptake into HEK cells stably expressing OATP1B1*15 vs vector control. The class given is in vitro ADME. The conditions noted are these: 10 min.
Description: as §1
(§3) Uptake assays were conducted at 37 °C according to previously described methods. For this, cells were seeded in 24-well plates (320,000 cells/well) and cultured for 2 days. Cells were then incubated for a further 24 h in culture medium with 5 mM butyrate (OATP1B3, OATP2B1, OCT1) or 10 mM butyrate (OATP1B1) to increase protein levels of recombinant transporters. Before the uptake experiments, cells were washed with the respective pre-warmed (37 °C) uptake buffer. The compositions of the uptake buffers were as follows: for OATP1B1, OATP1B3, OATP2B1: 142 mM NaCl, 12.5 mM hydroxyethylpiperazine ethanesulfonic acid, 5 mM KCl, 1 mM KH2PO4, 1.5 mM CaCl2, 1.2 mM MgSO4, 5 mM glucose, pH 7.3; for OCT1: 145 mM NaCl, 5 mM hydroxyethylpiperazine ethanesulfonic acid, 3 mM KCl, 1 mM CaCl2, 0.5 mM MgCl2, 5 mM glucose, pH 7.4. Uptake was initiated by replacing this solution with uptake buffer containing different concentrations of remdesivir as indicated. […]
as §2

Data set [3] deals with T2, OATP1B1 (Homo sapiens, UniProt Q9Y6L6).
T2 construct: expressed in transfected cells
T2 sequence (Q9Y6L6 1-691): T1 sequence (Q9Y6L6 1-691 N130D/V174A) with D130N, A174V
Briefly: Remdesivir uptake into HEK cells stably expressing OATP1B1 (*1a) vs vector control. The class given is in vitro ADME. The conditions noted are these: 5 µM remdesivir, 10 min.
Description: as §1, §3, §2

Consider `CCC(CC)COC(=O)[C@H](C)N[P@](=O)(OC[C@H]1O[C@@](C#N)(c2ccc3c(N)ncnn23)[C@H](O)[C@@H]1O)Oc1ccccc1` [Remdesivir], for which the “Accumulation into control cells” value in data set [1] is listed as “high remdesivir accumulation”. Also, the IC50 (in general, the concentration that inhibits the measured activity by half) with OATP1B1 [2] is 2800 nM. The “Uptake vs vector-transfected control cells” value on OATP1B1*15 (0.5 µM remdesivir) is on record as “significantly lower uptake”. The “Accumulation vs vector-transfected control cells” value at OATP1B1*15 (5 µM remdesivir) was “moderately higher”; at OATP1B1*15 (10 and 50 µM remdesivir) it was “moderately higher”; at OATP1B1 [3] (OATP1B1*1a cells), “moderately higher”. For the same compound, at OATP1B1 [3], the “Significance of uptake vs control cells” value was “Statistically significant uptake”. In addition, the Remdesivir uptake ratio at OATP1B1 [3] (transporter-expressing vs control HEK cells) was 1.3.
